Reference: patent publication US12077503B2, “Substituted cyclic amides and their use as herbicides” (FMC CORPORATION, priority 2015, dated 2024)

Legend:
Experiment in all cases: Test G Post-Emergence Protocol
Format in all cases: in vivo
[1] = test system: barnyardgrass (Echinochloa crus-galli); details: Echinochloa crus-galli, post-emergence, 312 h; for pest or weed control at 15.625 g/ha: 15.625 g ai/ha, evaluated after 13 days (100=total damage to plant; 0=no damage to plant), read-out: Barnyardgrass damage rating; for pest or weed control at 62.5 g/ha: 62.5 g ai/ha, read-out: Barnyardgrass damage rating (100=total damage to plant; 0=no damage to plant); for pest or weed control at 62.5 g/ha / pest or weed control at 250 g/ha: evaluated after 13 days; for pest or weed control at 250 g/ha: 250 g ai/ha, read-out: damage to plant, Barnyardgrass (100=total damage to plant; 0=no damage to plant)
Outline: (§1)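 Values are percent visual injury at 13 days after treatment (0 none, 100 total). Treatment was a post-emergence spray at 15.625, 62.5 or 250 g/ha on 8-day-old pot plants kept at 24/16 °C.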

corn (Zea mays) = details: Zea mays, post-emergence, 312 h; for plant injury at 15.625 g/ha: 15.625 g ai/ha, evaluated after 13 days (100=total damage to plant; 0=no damage to plant), read-out: Corn damage rating; for plant injury at 62.5 g/ha: 62.5 g ai/ha, read-out: Corn damage rating (100=total damage to plant; 0=no damage to plant); for plant injury at 62.5 g/ha / plant injury at 250 g/ha: evaluated after 13 days; for plant injury at 250 g/ha: 250 g ai/ha, read-out: damage to plant, Corn (100=total damage to plant; 0=no damage to plant)
Outline: as §1

[2] = test system: giant foxtail (Setaria faberi); details: Setaria faberi, post-emergence, 312 h; for pest or weed control at 15.625 g/ha: 15.625 g ai/ha, evaluated after 13 days (100=total damage to plant; 0=no damage to plant), read-out: Foxtail, Giant damage rating; for pest or weed control at 62.5 g/ha: 62.5 g ai/ha, read-out: Foxtail, Giant damage rating (100=total damage to plant; 0=no damage to plant); for pest or weed control at 62.5 g/ha / pest or weed control at 250 g/ha: evaluated after 13 days; for pest or weed control at 250 g/ha: 250 g ai/ha, read-out: damage to plant, Foxtail, Giant (100=total damage to plant; 0=no damage to plant)
Outline: as §1

[3] = test system: redroot pigweed (Amaranthus retroflexus); details: Amaranthus retroflexus, post-emergence, 312 h; for pest or weed control at 15.625 g/ha: 15.625 g ai/ha, evaluated after 13 days (100=total damage to plant; 0=no damage to plant), read-out: Pigweed, Redroot damage rating; for pest or weed control at 62.5 g/ha: 62.5 g ai/ha, read-out: Pigweed, Redroot damage rating (100=total damage to plant; 0=no damage to plant); for pest or weed control at 62.5 g/ha / pest or weed control at 250 g/ha: evaluated after 13 days; for pest or weed control at 250 g/ha: 250 g ai/ha, read-out: damage to plant, Pigweed, Redroot (100=total damage to plant; 0=no damage to plant)
Outline: as §1

[4] = test system: velvetleaf (Abutilon theophrasti); details: Abutilon theophrasti, post-emergence, 312 h; for pest or weed control at 15.625 g/ha: 15.625 g ai/ha, evaluated after 13 days (100=total damage to plant; 0=no damage to plant), read-out: Velvetleaf damage rating; for pest or weed control at 62.5 g/ha: 62.5 g ai/ha, read-out: Velvetleaf damage rating (100=total damage to plant; 0=no damage to plant); for pest or weed control at 62.5 g/ha / pest or weed control at 250 g/ha: evaluated after 13 days; for pest or weed control at 250 g/ha: 250 g ai/ha, read-out: damage to plant, Velvetleaf (100=total damage to plant; 0=no damage to plant)
Outline: as §1

[5] = test system: ivy-leaved morning glory (Ipomoea hederacea); details: Ipomoea, post-emergence, 312 h; for pest or weed control at 15.625 g/ha: 15.625 g ai/ha, evaluated after 13 days (100=total damage to plant; 0=no damage to plant), read-out: Morningglory, Ivy-leaved damage rating; for pest or weed control at 62.5 g/ha: 62.5 g ai/ha, read-out: Morningglory, Ivy-leaved damage rating (100=total damage to plant; 0=no damage to plant); for pest or weed control at 62.5 g/ha / pest or weed control at 250 g/ha: evaluated after 13 days; for pest or weed control at 250 g/ha: 250 g ai/ha, read-out: damage to plant, Morningglory, Ivy-leaved (100=total damage to plant; 0=no damage to plant)
Outline: as §1

| SMILES | pest or weed control at 15.625 g/ha [1] | pest or weed control at 62.5 g/ha [1] | pest or weed control at 250 g/ha [1] | plant injury at 15.625 g/ha (corn (Zea mays)) | plant injury at 62.5 g/ha (corn (Zea mays)) | plant injury at 250 g/ha (corn (Zea mays)) | pest or weed control at 15.625 g/ha [2] | pest or weed control at 62.5 g/ha [2] | pest or weed control at 250 g/ha [2] | pest or weed control at 15.625 g/ha [3] | pest or weed control at 62.5 g/ha [3] | pest or weed control at 250 g/ha [3] | pest or weed control at 15.625 g/ha [4] | pest or weed control at 62.5 g/ha [4] | pest or weed control at 250 g/ha [4] | pest or weed control at 15.625 g/ha [5] | pest or weed control at 62.5 g/ha [5] | pest or weed control at 250 g/ha [5] |
| --- | --- | --- | --- | --- | --- | --- | --- | --- | --- | --- | --- | --- | --- | --- | --- | --- | --- | --- |
| CN1C[C@@H](c2ccc(C(F)(F)F)cc2)[C@H](C(=O)Nc2ncc(C#N)s2)C1=O (racemic) [Compound 1528] | 0% | 0% | 0% | 0% | 0% | 0% | 0% | 0% | 0% | 0% | 0% | 0% | 0% | 0% | 0% | 0% | 0% | 0% |
| Cc1cc(NC(=O)[C@@H]2C(=O)N(C)C[C@H]2c2ccc(C(F)(F)F)cc2)n[nH]1 (racemic) [Compound 1532] | 0% | 0% | 0% | 0% | 0% | 0% | 0% | 0% | 0% | 0% | 0% | 0% | 0% | 0% | 0% | 0% | 0% | 0% |
| CN1C[C@@H](c2ccc(C(F)(F)F)cc2)[C@H](C(=O)Nc2cc[nH]n2)C1=O (racemic) [Compound 1533] | 0% | 0% | 0% | 0% | 0% | 0% | 0% | 0% | 0% | 0% | 0% | 0% | 0% | 0% | 0% | 0% | 0% | 0% |
| CN1C[C@@H](c2ccc(C(F)(F)F)cc2)[C@H](C(=O)Nc2nc[nH]n2)C1=O (racemic) [Compound 1534] | 0% | 0% | 0% | 0% | 0% | 0% | 0% | 0% | 0% | 0% | 0% | 0% | 0% | 0% | 10% | 0% | 0% | 10% |
| CN1C[C@@H](c2ccc(C(F)(F)F)cc2)[C@H](C(=O)Nc2cnccc2Cl)C1=O (racemic) [Compound 1541] | 0% | 0% | 20% | 0% | 0% | 10% | 0% | 0% | 50% | 0% | 0% | 20% | 0% | 0% | 0% | 0% | 0% | 10% |
